Series [1] addresses Aldo-keto reductase family 1 member B1 (Rattus norvegicus, UniProt P07943).
Description: Inhibition of ALR2 in Sprague-Dawley Albino rat lens
For series [2], the target named is Aldo-keto reductase family 1 member A1 (Rattus norvegicus, UniProt P51635).
Description: Inhibition of ALR1 in Sprague-Dawley Albino rat kidney
Series [3] relates to Brain. Description: tissue or blood. Conditions: Rattus norvegicus, Sprague-Dawley Albino.
The subject of series [4] is Brain. Description: tissue or blood. Conditions: Rattus norvegicus, Sprague-Dawley Albino. This is another data set of the same source.
Series [5] can be described thus: physchem.
Description: Acid dissociation constant, pKa of the compound
Series [6] concerns Brain. Conditions: Rattus norvegicus, Sprague-Dawley Albino, 10 uM.

Calls of active or inactive are those of the source. No cut-off for these calls is given here.

One may read the IC50 as the midpoint of a concentration-inhibition curve. Low values mean greater potency in that assay, high ones weaker potency in that assay. The term inhibition denotes the relative decrease from the control value, in per cent. A higher inhibition goes with strong suppression. As usually defined, the pKa is the pH at which an ionisable group is half protonated. The low end stands for a stronger acid or weaker base, the high end for a weaker acid or stronger base.

Aldo-keto reductase family 1 member A1, sequence (P51635 whole entry, looked up): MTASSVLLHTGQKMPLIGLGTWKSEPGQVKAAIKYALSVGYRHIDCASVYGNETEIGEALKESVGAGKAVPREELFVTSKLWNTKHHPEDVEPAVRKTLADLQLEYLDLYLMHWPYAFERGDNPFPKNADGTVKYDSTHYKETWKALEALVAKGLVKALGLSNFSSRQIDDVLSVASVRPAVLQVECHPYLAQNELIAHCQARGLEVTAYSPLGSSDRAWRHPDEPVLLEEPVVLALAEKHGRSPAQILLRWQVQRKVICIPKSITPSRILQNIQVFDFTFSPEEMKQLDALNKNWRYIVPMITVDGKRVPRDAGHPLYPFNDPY

For `COc1ccc(-c2cc(=O)n3c(O)cccc3n2)cc1OC`, the IC50 is 100 µM in series [1] and more than 10 µM in series [2]. The same compound came in with an inhibition at 100 µM in series [3] of 64.7%. At 10 µM the inhibition in series [4] was 28.5%.

Regarding `COc1ccc(-c2cc(=O)n3cccc(O)c3n2)cc1`, the IC50 in series [1] and in series [2] was more than 10 µM throughout. For the same compound, in series [3], the inhibition at 100 µM was 11.5%. In series [4], this compound returned an inhibition at 10 µM of 3.4%.

On to `O=c1cc(-c2ccc(O)c(O)c2)nc2ccccn12`, for which the IC50 in series [1] was 0.67 µM; in series [2], more than 10 µM. The same compound displayed a pKa in series [5] of 6.8. The inhibition at 100 µM in series [3] was determined as 71.6%. This compound also returned an inhibition at 10 µM in series [4] of 26.6%.

For the compound `COc1ccc(Cc2cc(=O)n3c(O)cccc3n2)cc1OC`, the IC50 in series [1] and in series [2] was more than 10 µM in each case. Besides, in series [3], at 100 µM the inhibition was 45.1%. In addition, testing at 10 µM in series [4] gave an inhibition of 25.8%.

Turning to `O=c1cc(-c2ccc(O)c(O)c2)nc2cccc(O)n12`, the IC50 in series [1] is 0.1 µM; in series [2], more than 10 µM. Testing at 100 µM in series [3] gave an inhibition of 85.9%. Moreover, the inhibition at 10 µM in series [4] amounted to 66.5%.

Turning to `COc1ccc(Cc2cc(=O)n3c(O)cccc3n2)cc1`, the IC50 in series [1] and in series [2] was more than 10 µM in each case. The inhibition at 100 µM in series [3] was 42.4%. Besides, the inhibition at 10 µM in series [4] was determined as 18.9%.

In the case of `COc1ccc(-c2cc(=O)n3cccc(O)c3n2)cc1OC`, the 50% inhibitory concentration (IC50) in series [1] and in series [2] was more than 10 µM in each case. Besides, testing at 100 µM in series [3] gave an inhibition of 8.8%. In series [4], this compound showed an inhibition at 10 µM of 1.2%.

`O=c1cc(-c2ccc(O)cc2)nc2cccc(O)n12`: the IC50 is 0.42 µM in series [1] and more than 10 µM in series [2]. The compound further returned an inhibition at 100 µM in series [3] of 42.4%. In series [4], this compound showed an inhibition at 10 µM of 21.2%.

Regarding `O=c1cc(-c2ccc(O)c(O)c2)nc2c(O)cccn12`, the results for the IC50 in series [1] and in series [2] were 0.45 µM and more than 10 µM, respectively. Moreover, the inhibition at 100 µM in series [3] amounted to 81.5%. In addition, testing at 10 µM in series [4] gave an inhibition of 48.2%.

In the case of `COc1ccc(-c2cc(=O)n3c(O)cccc3n2)cc1`, the IC50 in series [1] is 0.74 µM; in series [2], more than 10 µM. Moreover, the inhibition at 100 µM in series [3] came out at 82.8%. For the same compound, 10 µM produced 50.4% inhibition in series [4].

Consider `COc1ccc(-c2cc(=O)n3ccccc3n2)cc1OC`, for which the IC50 in series [1] and in series [2] was more than 10 µM in each case. The result in series [6] was inactive. Besides, the inhibition at 100 µM in series [3] amounted to 18.8%.

For the compound `O=c1cc(Cc2ccc(O)cc2)nc2cccc(O)n12`, the IC50 in series [1] was 44 µM; in series [2], more than 10 µM. In series [3], this compound came in with an inhibition at 100 µM of 51.4%. Further, in series [4], 10 µM produced 11.5% inhibition.

Compound `CC(=O)N(O)CCCCCNC(=O)CCC(=O)N(O)CCCCCNC(=O)CCC(=O)N(O)CCCCCN` [DEFEROXAMINE] displayed an inhibition at 100 µM in series [3] of 72%.

For the compound `COc1ccc(-c2cc(=O)n3ccccc3n2)cc1`, the IC50 in series [1] and in series [2] was more than 10 µM throughout. This compound also came in with an inhibition at 100 µM in series [3] of 15.1%. In series [4], this compound showed an inhibition at 10 µM of 8.3%.

For `O=c1cc(-c2ccc(O)cc2)nc2c(O)cccn12`, the results for the IC50 in series [1] and in series [2] were 2.07 µM and more than 10 µM, respectively. The inhibition at 100 µM in series [3] was found to be 43.2%. The same compound had an inhibition at 10 µM in series [4] of 11.8%.

Take `Cc1c(C)c2c(c(C)c1O)CC[C@@](C)(CCCC(C)CCCC(C)CCCC(C)C)O2` (single isomer, unassigned) [ALPHA-TOCOPHEROL]: in series [3], 100 µM produced 18.2% inhibition.

With `O=c1cc(-c2ccc(O)cc2)nc2ccccn12`, the half-inhibitory concentration (IC50) is 4.56 µM in series [1] and more than 10 µM in series [2]. Also, the pKa in series [5] is 7.6. In addition, the outcome in series [6] was inactive. This compound also gave an inhibition at 100 µM in series [3] of 23.7%.

Turning to `O=c1cc(Cc2ccccc2)nc2cccc(O)n12`, the values for the IC50 in series [1] and in series [2] were 55 µM and more than 10 µM, respectively. Besides, at 100 µM the inhibition in series [3] was 45.7%. Also, testing at 10 µM in series [4] gave an inhibition of 19.3%.

Take `O=c1cc(-c2ccccc2)nc2c(O)cccn12`: the half-maximal inhibitory concentration (IC50) in series [1] and in series [2] was more than 10 µM throughout. Besides, in series [5], the pKa was 10.2. Testing at 100 µM in series [3] gave an inhibition of 11.9%. Further, the inhibition at 10 µM in series [4] stood at 5.9%.

`O=c1cc(Cc2ccc(O)c(O)c2)nc2cccc(O)n12`: the IC50 is 12 µM in series [1] and more than 10 µM in series [2]. The inhibition at 100 µM in series [3] was found to be 89.9%. Besides, the inhibition at 10 µM in series [4] stood at 56.7%.

Turning to `O=c1cc(-c2ccccc2)nc2ccccn12`, the IC50 in series [1] and in series [2] was more than 10 µM each time. This compound yielded an inhibition at 100 µM in series [3] of 22.4%. In series [4], at 10 µM the inhibition was 10.8%.
